Measured values reported in publication PMC11242993, “Evaluation of the Therapeutic Potential of Sulfonyl Urea Derivatives as Soluble Epoxide Hydrolase (sEH) Inhibitors” (Molecules, 2024).

Assay: Caco-2 permeability
Type: in vitro ADME
Details: human, Caco-2, pH 7.4
Description: Caco-2 cells were cultured in 75 cm^2 flasks to 80–90% confluence according to the ATCC and Millipore recommendations in a humidified atmosphere at 37 °C and 5% CO2. Cells were detached with a trypsin/EDTA solution, resuspended in the complete medium containing DMEM high glucose ([…]) with L-glutamine (4 mM) supplemented with 10% heat-inactivated Fetal Bovine Serum, 1% non-essential amino acids, and 730 nM puromycin, and seeded at a density of 5 × 10^5 cells in a 75 cm^2 flask. After 5 days, cells were trypsinized and resuspended in the complete medium to a final concentration of 600 × 10^3 cells/mL. Of the cell suspension, 400 µL was added to each well of an HTS 24-Multiwell Insert System and 25 mL of prewarmed complete medium was added to the feeder tray. Caco-2 cells were incubated in the Multiwell Insert System for 6–10 days before the transport experiments. The medium in the filter plate and feeder tray was refreshed every other day. Prior to the transport experiment, the integrity of the monolayer was verified by measuring the transepithelial electrical resistance (TEER) for every well using a Millicell-ERS system ohm meter. The final TEER values were within the range of 150–600 Ω × cm^2, as required for the assay conditions. The 24-well insert plate was removed from its feeder plate and placed in a new sterile 24-well transport analysis plate. The inserts were washed with PBS after medium aspiration. Ketoprofen, atenolol, digoxin, and quinidine were used as reference compounds.
To determine transport rates in the basolateral (B)-to-apical (A) direction, 1000 μL of the test compound solutions was added into the wells of the transport analysis plate, and the wells in the filter plate were filled with 300 μL of buffer (apical compartment).
The effect of the inhibitor on the Pgp-mediated transport of the tested compounds was assessed by determining the bidirectional transport in the presence or absence of verapamil. The Caco-2 cells were preincubated for 30 min at 37 °C with 100 μM of verapamil in both apical and basolateral compartments. After removal of the preincubation medium, the test compounds with verapamil (100 μM) in transport buffer were added in donor wells, while the receiver wells were filled with the appropriate volume of transport buffer with 100 μM of verapamil. The final amounts of test and reference compounds were 10 μM each. The plates were incubated for 90 min at 37 °C under continuous shaking at 100 rpm. Aliquots of 75 μL were taken from the donor and receiver compartments for LC–MS/MS analysis. All samples were mixed with 2 volumes of acetonitrile followed by protein sedimentation by centrifuging at 10,000 rpm for 10 min. Supernatants were analyzed using the HPLC system coupled with a tandem mass spectrometer.

**Q.** With O=C(NC12CC3CC(CC(C3)C1)C2)NS(=O)(=O)c1ccc(OC(F)(F)F)cc1 [Compound 4f] as the molecule, how does the Papp A→B at 90 min, 10 µM (A to B, read-out: Caco-2 Permeability Apical to Basal (Papp)) read?
**A.** 14.9 ×10⁻⁶ cm/s

**Q.** And the Papp B→A at 90 min, 10 µM (B to A, read-out: Caco-2 Permeability Basal to Apical (Papp))?
**A.** 12.6 ×10⁻⁶ cm/s
